The record followed here is ChEMBL document CHEMBL3608277 (ACS Med Chem Lett, 2015).

The source made the active and inactive calls. The calls are words filed in the database; no cut-off is given here. Where only a bound is given, the exact number is not on record here.

Data set [1] concerns Human immunodeficiency virus 1. As to the kind of experiment: Antiviral activity against HIV1 3B infected in CD4/CXCR4 expressing human MAGI cells incubated for 48 hrs by beta-galactosidase reporter gene assay. It counts as functional, organism-based. The settings on record: Human immunodeficiency virus 1, 3B.
Data set [2] has as its system Human immunodeficiency virus 1. As to the kind of experiment: Antiviral activity against HIV1 BaL infected in CD4/CCR5 expressing human MAGI cells incubated for 48 hrs by beta-galactosidase reporter gene assay. In kind it is functional, organism-based. The conditions noted are these: Human immunodeficiency virus 1, BaL.
Data set [3] relates to Human immunodeficiency virus. Put plainly: Resistance index, ratio of EC50 for […] HIV containing reverse transcriptase K103N/Y181C mutation to EC50 for wild type HIV. It counts as functional.
For data set [4], the system named is Human immunodeficiency virus. Put plainly: Antiviral activity against wild type HIV. In kind it is functional, organism-based. The conditions noted are these: Human immunodeficiency virus 1.
Data set [5] can be described thus: Toxicity against human PBMC by MTS assay. It counts as cell-based. The conditions noted are these: read-out: TC50 (the source's name). For orientation: Tetrazolium assays rely on reduction of a dye to a coloured formazan, in cell work by metabolically active cells.
Data set [6] is described as follows: Toxicity against human MAGI cells incubated for 48 hrs by MTS assay. The conditions noted are these: read-out: TC50. It counts as cell-based.
The target in data set [7] is T1, C-C chemokine receptor type 5 (Homo sapiens, UniProt P51681). As to the kind of experiment: Displacement of [125I]-MIP-1beta form CCR5 (unknown origin) at 1 mM. For orientation: In a radioligand displacement assay an active substance lowers the binding of a labelled ligand.
Target sequence in this assay (P51681 whole entry, looked up): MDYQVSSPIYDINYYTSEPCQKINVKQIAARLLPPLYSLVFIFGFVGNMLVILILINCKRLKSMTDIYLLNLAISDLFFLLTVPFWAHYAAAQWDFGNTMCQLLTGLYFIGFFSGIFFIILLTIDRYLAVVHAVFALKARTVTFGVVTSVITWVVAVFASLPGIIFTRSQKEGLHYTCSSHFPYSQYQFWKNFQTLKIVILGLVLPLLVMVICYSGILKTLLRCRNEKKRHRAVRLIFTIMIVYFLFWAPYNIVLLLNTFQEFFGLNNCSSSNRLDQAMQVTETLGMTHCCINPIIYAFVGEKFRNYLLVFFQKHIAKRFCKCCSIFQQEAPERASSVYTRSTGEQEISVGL
Data set [8] concerns the target C-X-C chemokine receptor type 4 (Homo sapiens) (UniProt P61073). As to the kind of experiment: Displacement of [125I]-SDF1 form CXCR4 (unknown origin) at 1 mM.
Data set [9] has as its system Human immunodeficiency virus. As to the kind of experiment: Antiviral activity against NNRTI-resistant HIV containing reverse transcriptase K103N/Y181C mutation. In kind it is functional, organism-based. The conditions noted are these: Human immunodeficiency virus 1.
A short description of data set [10]: Inhibition of HIV pNL4-3 heterodimeric reverse transcriptase p66/p51 incubated at 37 degC for 1 hr by scintillation counting method. Also noted: species or system Human immunodeficiency virus.
A short description of data set [11]: Toxicity against HEK293 cells derived ACTOne-X4 cells. The settings on record: human. In kind it is cell-based.
Data set [12] concerns Human immunodeficiency virus 2. As to the kind of experiment: Antiviral activity against HIV2 CDC310319 infected in human PBMC cells. In kind it is functional, organism-based. The settings on record: Human immunodeficiency virus 2, CDC310319, PBMC.
In data set [13] the test system is Human immunodeficiency virus 1. As to the kind of experiment: Antiviral activity against HIV1 3B infected in CD4/CXCR4 expressing human PBMC cells by reverse transcriptase activity and/or p24 antigen content detection based assay. It counts as functional, organism-based. The conditions noted are these: Human immunodeficiency virus 1, 3B.
The subject of data set [14] is Human immunodeficiency virus 1. Put plainly: Antiviral activity against HIV1 BaL infected in CD4/CCR5 expressing human PBMC cells by reverse transcriptase activity and/or p24 antigen content detection based assay. It counts as functional, organism-based. The settings on record: Human immunodeficiency virus 1, BaL.
In data set [15] the target is T1, C-C chemokine receptor type 5. As to the kind of experiment: Displacement of [125I]-MIP-1beta form CCR5 (unknown origin) at 100 uM.
Target sequence in this assay (P51681 whole entry, looked up): as above
Data set [16] has as its target C-X-C chemokine receptor type 4 (Homo sapiens) (UniProt P61073). Put plainly: Inhibition of CXCR4 in human Jurkat cells assessed as reduction in HIV-Nef-M1-induced mitochondrial membrane depolarization at 0.01 to 100 uM by JC1 dye based fluorescence depolarization assay. In kind it is cell-based.
The nature of data set [17]: Toxicity against human HeLa67 cells. In kind it is cell-based.
Data set [18] addresses T1, C-C chemokine receptor type 5. As to the kind of experiment: Displacement of [125I]-MIP-1beta form CCR5 (unknown origin).
Target sequence in this assay (P51681 whole entry): as the sequence (P51681 whole entry, looked up) above

Broadly, the IC50 is the point on the concentration scale where inhibition reaches its midpoint. Low readings indicate greater potency in that assay, high ones weaker potency in that assay. The EC50 is the concentration giving half of the maximal effect. Low readings indicate a more potent agent, high ones a less potent agent. A word on the inhibition: it is the relative decrease from the control value, in per cent.

C-X-C chemokine receptor type 4 (Homo sapiens), sequence (P61073 whole entry): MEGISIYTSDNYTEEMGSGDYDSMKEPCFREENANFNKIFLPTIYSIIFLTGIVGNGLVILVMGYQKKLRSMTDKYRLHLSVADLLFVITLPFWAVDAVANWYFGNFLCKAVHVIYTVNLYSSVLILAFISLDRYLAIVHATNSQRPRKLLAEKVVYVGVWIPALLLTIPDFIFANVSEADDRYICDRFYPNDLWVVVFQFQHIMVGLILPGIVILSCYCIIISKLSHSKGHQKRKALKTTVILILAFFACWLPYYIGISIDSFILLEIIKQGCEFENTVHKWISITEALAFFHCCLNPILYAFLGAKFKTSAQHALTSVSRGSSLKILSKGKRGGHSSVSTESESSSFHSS

In the case of `Nc1ccnc(CN2CCC(c3[nH]ncc3Cc3ccccc3)CC2)n1`, the IC50 was determined as 81 µM in data set [1] and 83 µM in data set [2].
On the same counts, the results for `c1ccc(Cc2cn[nH]c2C2CCN(Cc3ccccn3)CC2)cc1` are 25 µM and 17 µM.
Consider `CCc1nccc(CN2CCC(c3[nH]ncc3Cc3ccccc3)CC2)n1`, for which the IC50 in [1] worked out at 57 µM; in data set [2], 66 µM.
Turning to `O=C1Nc2ccc(Cl)cc2[C@@](C#CC2CC2)(C(F)(F)F)O1` [EFAVIRENZ], the “Ratio EC50” value in data set [3] is 70.
Consider `c1ccc(Cc2cn[nH]c2C2CCN(Cc3ccncc3)CC2)cc1`, for which the EC50 worked out at 0.9 µM in [4] and 19 µM in data set [9]. Moreover, the CC50 was over 100 µM in data set [5] and over 200 µM in [11]. For the same compound, the CC50 at 48 h in data set [6] was over 300 µM. The concentration for half-maximal inhibition (IC50) in [1] came out at 0.8 µM; in data set [10], 9 µM; in [2], 3.8 µM; in data set [12], 31 µM; in [13], 2.3 µM; in data set [14] it was 2.3 µM. Moreover, the inhibition in [7] turned out to be 88%; in data set [8], 0%; in [15], 38%.
For `CCc1cc(CN2CCC(c3[nH]ncc3Cc3ccccc3)CC2)[nH]n1`, the IC50 turned out to be 68 µM in data set [1] and 60 µM in data set [2].
In the case of `c1ccc(Cc2cn[nH]c2C2CCN(Cc3cccnc3)CC2)cc1`, the IC50 in data set [1] stood at 5.8 µM; in [2], 16 µM.
On to `Cc1cn([C@H]2C[C@H](N=[N+]=[N-])[C@@H](CO)O2)c(=O)[nH]c1=O`, for which, in [16], the inhibition result was “inactive”.
For the compound `Nc1cc(CN2CCC(c3[nH]ncc3Cc3ccccc3)CC2)ncn1`, the values for the half-inhibitory concentration (IC50) in data set [1] and in data set [2] were 13 µM and 17 µM, respectively.
`Cc1ccc(-c2ccc3c(c2)C=C(C(=O)Nc2ccc(C[N+](C)(C)C4CCOCC4)cc2)CCC3)cc1.[Cl-]`: the Activity entry in data set [17] is given as “Toxic”.
On to `c1ccc(-c2cn[nH]c2C2CCN(Cc3cccnc3)CC2)cc1`, for which the 50% inhibitory concentration (IC50) in data set [1] came out at 44 µM; in data set [2], 64 µM.
Taken in the same sequence, the figures for `Nc1ncc(N2CCC(c3[nH]ncc3Cc3ccccc3)CC2)cn1` were 105 µM and 95 µM.
Turning to `COc1ncc(CN2CCC(c3[nH]ncc3Cc3ccccc3)CC2)cn1`, the IC50 in [1] was over 200 µM; in data set [18], 70 µM; in [2] it was 72 µM.
Regarding `CC(C)c1nccc(CN2CCC(c3[nH]ncc3Cc3ccccc3)CC2)n1`, the IC50 stood at 6.4 µM in [1] and 13 µM in [2].
Regarding `Cc1nnc(C(C)C)n1[C@H]1C[C@H]2CC[C@@H](C1)N2CC[C@H](NC(=O)C1CCC(F)(F)CC1)c1ccccc1`, in [16], the inhibition result is “inactive”.
Still for that read-out and setting: under `c1cc(CN2CCCNCCNCCCNCC2)ccc1CN1CCCNCCNCCCNCC1` stands “Active”.
